From the supplement of paper PMC10307832

How the values were obtained:
Experiment in all cases: relative viability (nuclei count vs DMSO), 5 days (fraction); higher = more cells survive
Pimozide = compound: O=c1[nH]c2ccccc2n1C1CCN(CCCC(c2ccc(F)cc2)c2ccc(F)cc2)CC1 [Pimozide]
How it was run: (§1)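 Lung cancer cell lines were seeded into 1536-well plates, kept overnight at 37 °C and pinned with five library-drug doses (not always all listed) spaced by √10. After 5 days, nuclei were Hoechst-stained, imaged at 4× and counted with MetaXpress. Viability is treated-well nuclei over vehicle-well nuclei, taken as a median across plates. Plates needed control CV below 25% and at least one doubling.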

[1] = compound: Cc1cnc(-c2cnc(NCCNc3ccc(C#N)cn3)nc2-c2ccc(Cl)cc2Cl)[nH]1
How it was run: as §1

Cytarabine = compound: Nc1ccn([C@@H]2O[C@H](CO)[C@@H](O)[C@@H]2O)c(=O)n1 [Cytarabine]
How it was run: as §1

Tivozanib = compound: COc1cc2nccc(Oc3ccc(NC(=O)Nc4cc(C)on4)c(Cl)c3)c2cc1OC [Tivozanib]
How it was run: as §1

CPI-613 = compound: O=C(O)CCCCC(CCSCc1ccccc1)SCc1ccccc1 [CPI-613]
How it was run: as §1

JQ1 = compound: Cc1sc2c(c1C)C(c1ccc(Cl)cc1)=N[C@@H](CC(=O)OC(C)(C)C)c1nnc(C)n1-2 [JQ1]
How it was run: as §1

Docetaxel = compound: CC(=O)O[C@@]12CO[C@@H]1C[C@H](O)[C@@]1(C)C(=O)[C@H](O)C3=C(C)[C@@H](OC(=O)[C@H](O)[C@@H](NC(=O)OC(C)(C)C)c4ccccc4)C[C@@](O)([C@@H](OC(=O)c4ccccc4)[C@H]21)C3(C)C [Docetaxel]
How it was run: as §1

| Cell Line | relative viability (Pimozide; 0.08 µM) | relative viability (Pimozide; 0.253 µM) | relative viability (Pimozide; 0.8 µM) | relative viability (Pimozide; 2.53 µM) | relative viability (Pimozide; 8 µM) | relative viability ([1]; 0.08 µM) | relative viability ([1]; 0.253 µM) | relative viability ([1]; 0.8 µM) | relative viability ([1]; 2.53 µM) | relative viability (Cytarabine; 0.005 µM) | relative viability (Cytarabine; 0.01581 µM) | relative viability (Cytarabine; 0.05 µM) | relative viability (Cytarabine; 0.1581 µM) | relative viability (Cytarabine; 0.5 µM) | relative viability (Tivozanib; 0.005 µM) | relative viability (Tivozanib; 0.01581 µM) | relative viability (Tivozanib; 0.05 µM) | relative viability (Tivozanib; 0.1581 µM) | relative viability (Tivozanib; 0.5 µM) | relative viability (CPI-613; 5 µM) | relative viability (CPI-613; 15.81 µM) | relative viability (CPI-613; 50 µM) | relative viability (CPI-613; 158.11 µM) | relative viability (CPI-613; 500 µM) | relative viability (JQ1; 0.04 µM) | relative viability (JQ1; 0.1265 µM) | relative viability (JQ1; 0.4 µM) | relative viability (JQ1; 1.265 µM) | relative viability (JQ1; 4 µM) | relative viability (Docetaxel; 0.0002 µM) | relative viability (Docetaxel; 0.000632 µM) | relative viability (Docetaxel; 0.002 µM) | relative viability (Docetaxel; 0.006325 µM) | relative viability (Docetaxel; 0.02 µM) |
| --- | --- | --- | --- | --- | --- | --- | --- | --- | --- | --- | --- | --- | --- | --- | --- | --- | --- | --- | --- | --- | --- | --- | --- | --- | --- | --- | --- | --- | --- | --- | --- | --- | --- | --- |
| LU99A | 0.907 | 0.938 | 0.858 | 0.893 | 1 | 1.06 | 0.939 | 1.04 | 0.963 | 1.06 | 0.825 | 0.905 | 0.886 | 0.929 | 0.987 | 0.849 | 0.942 | 0.751 | 0.952 | 0.896 | 0.886 | 0.832 | 0.756 | 0.279 | 0.847 | 0.667 | 0.82 | 0.542 | 0.32 | 0.997 | 0.83 | 0.478 | 0.395 | 0.203 |
| LXF-289 | 0.963 | 1 | 0.917 | 0.998 | 0.923 | 1.01 | 0.864 | 1.06 | 1.1 | 0.93 | 1 | 0.883 | 0.563 | 0.305 | 0.998 | 0.935 | 0.996 | 1.1 | 0.956 | 0.922 | 0.958 | 0.992 | 0.78 | 0.0678 | 0.984 | 0.965 | 0.981 | 0.936 | 0.671 | 1 | 0.731 | 0.473 | 0.171 | 0.128 |
| NCI-H23 | 0.95 | 1.05 | 0.773 | 0.851 | 0.808 | 0.891 | 0.873 | 0.941 | 0.842 | 0.773 | 0.564 | 0.559 | 0.246 | 0.203 | 0.943 | 0.966 | 0.913 | 0.661 | 0.61 | 0.982 | 0.881 | 0.943 | 0.39 | 0.043 | 0.919 | 0.874 | 0.584 | 0.274 | 0.218 | 0.99 | 0.725 | 0.296 | 0.209 | 0.137 |
| NCI-H322M |  | 0.932 | 1.02 | 0.948 | 0.705 | 0.976 | 0.842 | 0.853 | 1.26 | 0.877 | 0.794 | 0.628 | 0.475 | 0.336 | 0.948 | 0.929 | 0.972 | 0.791 | 0.902 | 0.894 | 0.85 | 0.899 | 0.911 | 0.153 | 0.917 | 1.05 | 0.822 | 0.57 | 0.437 | 0.957 | 0.889 | 0.762 | 0.612 | 0.439 |
| NCI-H358 | 0.796 | 1.02 | 0.876 | 0.943 | 0.925 | 0.97 | 0.818 | 0.822 | 0.796 | 0.912 | 0.757 | 0.509 | 0.2 | 0.161 | 0.898 | 0.944 | 1.1 | 0.915 | 1.01 | 0.876 | 0.949 | 0.901 | 0.495 | 0.038 | 0.982 | 0.976 | 0.941 | 0.638 | 0.461 | 0.768 | 0.463 | 0.251 | 0.209 | 0.138 |
| NCI-H441 | 1.12 | 0.9 | 0.804 | 0.883 | 0.776 | 1.01 | 0.768 | 0.95 | 0.867 | 0.962 | 0.973 | 0.965 | 0.365 | 0.367 | 0.949 | 0.93 | 0.919 | 0.895 | 0.766 | 0.954 | 1.01 | 0.924 | 0.4 | 0.0254 | 1.01 | 0.813 | 0.719 | 0.598 | 0.352 | 0.977 | 0.747 | 0.288 | 0.26 | 0.13 |
| NCI-H460 | 1.01 | 0.95 | 0.964 | 0.913 | 0.922 | 1 | 0.911 | 0.981 | 0.883 | 0.962 | 0.894 | 0.256 | 0.0513 | 0.0345 | 0.985 | 1.06 | 0.989 | 1.03 | 0.965 | 0.973 | 0.97 | 1 | 0.66 | 0.515 | 0.97 | 0.617 | 0.593 | 0.353 | 0.197 | 0.949 | 0.806 | 0.288 | 0.0373 | 0.0295 |
| NCI-H520 | 0.993 | 0.978 | 0.903 | 0.96 | 0.972 | 1.04 | 1 | 1.03 | 1.07 | 0.94 | 1.04 | 1.13 | 0.741 | 0.657 | 0.906 | 0.922 | 0.884 | 0.684 | 0.859 | 1.05 | 0.952 | 1.04 | 0.77 | 0.139 | 0.954 | 1.07 | 0.905 | 0.533 | 0.458 | 0.853 | 0.973 | 0.489 | 0.277 | 0.169 |
| NCI-H522 | 0.93 | 0.885 | 0.868 | 0.893 | 0.906 | 1.07 | 1.01 | 1.02 | 0.873 | 0.868 | 0.878 | 0.762 | 0.566 | 0.53 | 0.961 | 1.21 | 0.925 | 0.802 | 0.787 | 0.864 | 0.944 | 1.09 | 0.921 | 0.53 | 0.957 | 0.915 | 0.793 | 0.457 | 0.425 | 0.927 | 0.727 | 0.689 | 0.579 | 0.389 |
| NCI-H596 | 0.993 | 0.935 | 0.882 | 0.952 | 0.847 | 0.995 | 0.972 | 0.754 | 1.07 | 0.956 | 0.841 | 0.798 | 0.689 | 0.551 | 0.926 | 0.963 | 1.13 |  | 0.99 | 0.956 | 0.902 | 1.04 | 0.781 | 0.0741 | 1.06 | 0.923 | 0.747 | 0.412 | 0.286 | 0.89 | 0.89 | 0.632 | 0.518 | 0.273 |
| NCI-H647 | 0.91 | 0.981 | 0.848 | 0.857 | 0.806 | 1.06 | 0.862 | 0.931 | 0.934 | 0.63 | 0.323 | 0.265 | 0.111 | 0.0762 | 0.843 | 0.98 | 0.981 | 0.844 | 0.826 | 0.913 | 0.778 | 0.871 | 0.499 | 0.239 | 0.894 | 0.569 | 0.527 | 0.292 | 0.121 | 0.739 | 0.43 | 0.209 | 0.148 | 0.0799 |
| NCI-H650 | 0.969 | 0.914 | 0.839 | 0.997 | 1.12 | 1.03 | 1.01 | 0.797 | 0.783 | 0.893 | 0.581 | 0.328 | 0.234 | 0.205 | 0.86 | 0.979 | 0.935 | 0.607 | 0.706 | 0.937 | 0.803 | 1.05 | 0.621 | 0.716 | 0.946 | 0.628 | 0.78 | 0.365 | 0.298 | 0.871 | 0.456 | 0.343 | 0.257 | 0.187 |
| NCI-H661 | 0.99 | 1.01 | 0.925 | 0.897 | 0.924 | 0.979 | 0.973 | 0.975 | 0.898 | 1.04 | 0.93 | 0.902 | 0.715 | 0.581 | 0.954 | 0.975 | 0.993 | 0.992 | 1.01 | 0.963 | 0.914 | 0.956 | 0.832 | 0.233 | 1.03 | 0.962 | 0.952 | 0.879 | 0.769 | 0.93 | 0.986 | 1 | 0.541 | 0.459 |
| NCI-H727 | 0.849 | 0.864 | 0.998 | 0.879 | 0.93 | 0.952 | 0.864 | 0.943 | 0.86 | 0.785 | 0.766 | 0.788 | 0.402 | 0.382 | 0.8 | 0.85 | 1.01 | 0.702 | 0.917 | 0.831 | 0.825 | 0.916 | 0.654 | 0.309 | 0.923 | 0.988 | 0.413 | 0.465 | 0.409 | 0.772 | 0.892 | 0.726 | 0.548 | 0.413 |
| NCI-H838 | 0.953 | 0.998 | 0.93 | 0.927 | 0.959 | 0.999 | 0.93 | 1.05 | 1.16 | 0.97 | 0.964 | 0.743 | 0.423 | 0.293 | 0.957 | 0.969 | 1.01 | 0.736 | 0.979 | 0.948 | 0.864 | 0.883 | 0.649 | 0.0946 | 0.961 | 0.59 | 0.792 | 0.436 | 0.343 | 0.937 | 0.867 | 0.393 | 0.197 | 0.175 |
| NCI-H1299 | 1.02 | 0.951 | 0.977 | 0.995 | 0.988 | 0.968 | 1.01 | 1 | 0.969 | 1.01 | 1.04 | 1.01 | 1.06 | 1.02 | 1.01 | 1.03 | 1.03 | 1.02 | 0.952 | 1 | 0.984 | 1 | 0.992 | 0.973 | 0.974 | 0.851 | 0.909 | 0.379 | 0.308 | 0.998 | 0.975 | 0.868 | 0.502 | 0.37 |
